Laboratory results taken from patent US20210177879A1, “VITAMIN D RECEPTOR AGONIST” (Guanghzou University of Chinese Medicine, priority 2018, published 2021).

How the values were obtained:
[1] = test system: transplanted tumor of SW1990 breast cancer cells; assay: Transplanted tumor of SW1990 breast cancer cells in nude mice; format: in vivo; settings: 2 mg/kg in combination with 5-fluorouracil at half dose (20 mg/kg), once a day; effect comparable to 5-fluorouracil alone 40 mg/kg
Method: (§1) The SW1990 cells were thawed, and cultured in a changed medium after 24 hours. Medium preparation method: 6% serum, 1% of a bispecific antibody+a 1640 basal medium. After grown to confluent, the cells were digested and subcultured to expand the number of cells. When reached the required amount, the cells were digested by trypsin, centrifuged, and resuspended in PBS to prepare a cell suspension of 1×10^8 cells/ml. A part of the cell suspension was added with the monotropein, desacetyl asperulosidic acid, asperuloside, and asperulosidic acid respectively, and the inhibition rate (%) of tumor cell proliferation by each of these different compounds was examined.
(§2) Male adult nude mice, which had the body weights of 20-24 g, were purchased from Guangdong Medical Laboratory Animal Center. After 7 days of adaptive feeding of the animals, except for the blank group, the remaining animals were injected with 0.2 ml of a SW1990 cell suspension in PBS at ventrodorsal and scapula sites of them, the response conditions of the animals were observed, and the body weights of the animals were determined once a week. After 2 weeks of observation, the animals were grouped into the following groups according to tumor size: a blank group; a model group; a 5-fluorouracil control group (5-Full, 40 mg/kg); monotropein+5-fluorouracil (2 mg/kg monotropein+20 mg/kg 5-fluorouracil), desacetyl asperulosidic acid+5-fluorouracil (2 mg/kg desacetyl asperulosidic acid+20 mg/kg 5-fluorouracil), asperuloside+5-fluorouracil (2 mg/kg asperuloside+20 mg/kg 5-fluorouracil), asperulosidic acid+5-fluorouracil (2 mg/kg asperulosidic acid+20 mg/kg 5-fluorouracil), these groups being labeled as: Mo, As, Aa, Da. Each group included 8 animals; and administration was conducted once a day.
(§3) The status, death conditions, and eating and drinking conditions of the animals were observed daily. The body weights of the animals were determined once a week and the tumor size of the animals was determined every 4 days. The tumor volume of the animals was determined by using a vernier caliper. After 1 month of administration, the animals were sacrificed after blood was sampled from the orbit thereof, and the tumor was separated and weighed.

[2] = test system: HT29 transplanted tumor; assay: Transplanted tumor of HT29 colon cancer cells in nude mice; format: in vivo; settings: 2 mg/kg in combination with 5-fluorouracil at half dose (20 mg/kg), once a day; effect comparable to 5-fluorouracil alone 40 mg/kg
Method: as §1, with “HT29” for “SW1990”
as §2, with “a” for “a SW1990”
as §3

[3] = test system: IL-6, IL-10, IL-1β; assay: Determination of cytokines in intestinal tumor tissues by Elisa; format: in vivo, Balb/c mice; settings: vs model group
Method: Experimental method: 90 Balb/c mice of 6-8 weeks were purchased from the Experimental Animal Center in Guangzhou University of Chinese Medicine, weighed about 18-22 g, and subjected to adaptive feeding for 10 days. Modeling was divided into three stages. In the first stage, except for the normal group of animals being given saline injection, each of the other animals were intraperitoneally injected with a carcinogen AOM (10 mg/kg), and given free access to 2% DSS water from the next day for 7 days, and then given access to replaced regular drinking water for 14 days. In the second stage, the animals were given free access to 2% DSS water for 10 days, and then given access to replaced regular drinking water for 14 days. In the third stage, the animals were given free access to 2% DSS water for 10 days, and then given access to replaced regular drinking water for 11 days. The normal group was given access to regular drinking water throughout the experiment. The diet, water drinking and body weights of the animals were recorded daily and DAI scores were made, and the animals were killed and harvested at the 10th week. In this experiment, the animals were divided into groups and administrated on the first day of a modeling period of the second stage, and the total number of groups was set to 5 groups. […]
The intestinal tumor tissues frozen and stored at −80° C. were taken and homogenized, and the homogenate was determined with a BCA kit for the total protein concentration thereof. The homogenate was diluted by 20 times and then determined by Elisa method for cytokines: IL-6, IL-10, and IL-1β. […]

[4] = test system: SW1990 breast cancer cells; assay: In vitro proliferation inhibition of SW1990 breast cancer cells; format: cell-based; settings: concentration of 1 uM; compared with blank control group
Method: as §1

[5] = test system: AOM/DSS colon cancer model; assay: AOM/DSS colon cancer model, Experiment 1 (body weight, anal prolapse, organ coefficient, colon and tumor indexes); format: in vivo, Balb/c mice
Method: Experimental method: 90 Balb/c mice of 6-8 weeks were purchased from the Experimental Animal Center in Guangzhou University of Chinese Medicine, weighed about 18-22 g, and subjected to adaptive feeding for 10 days. Modeling was divided into three stages. In the first stage, except for the normal group of animals being given saline injection, each of the other animals were intraperitoneally injected with a carcinogen AOM (10 mg/kg), and given free access to 2% DSS water from the next day for 7 days, and then given access to replaced regular drinking water for 14 days. In the second stage, the animals were given free access to 2% DSS water for 10 days, and then given access to replaced regular drinking water for 14 days. In the third stage, the animals were given free access to 2% DSS water for 10 days, and then given access to replaced regular drinking water for 11 days. The normal group was given access to regular drinking water throughout the experiment. The diet, water drinking and body weights of the animals were recorded daily and DAI scores were made, and the animals were killed and harvested at the 10th week. In this experiment, the animals were divided into groups and administrated on the first day of a modeling period of the second stage, and the total number of groups was set to 5 groups. The first group was a blank control group (Normal), in which a total of 12 animals were given access to drinking water by gavage; the second group was a model group (AOM/DSS), in which a total of 22 animals were given access to drinking water by gavage; the third group was a positive drug control group (5-ASA+AOM/DSS), in which a total of 22 animals were given access to 100 mg/kg of mesalazine (5-ASA) by gavage; and the fourth and fifth groups were monotropein-intervening groups (Mo+AOM/DSS), which were a high dose of 8 mg/kg and a low dose of 2 mg/kg, respectively, with 17 animals in each group. Dosing was conducted daily until dissection.
(1) The calculation formula of a DAI score: DAI value=(score of weight loss+score of stool trait+score of blood in stool)/3.
The animals were anesthetized and harvested, and the liver, spleen, thymus and testis were weighed to calculate the organ coefficient; the colon tissue was taken, measured with a ruler for the length, and measured with a vernier caliper for the thickness, and the number and size of tumors and degree of colonic ulceration and adhesion were recorded; respective tissues were cut into small pieces and fixed, and the remaining tissues were frozen and stored; and the fixed tissues were used for HE staining and immunohistochemistry.

O=C(O)C1=CO[C@@H](O[C@@H]2O[C@H](CO)[C@@H](O)[C@H](O)[C@H]2O)[C@H]2[C@@H]1C=C[C@]2(O)CO [monotropein]
tumor proliferation in SW1990 tumor-bearing mice [1]: significantly inhibit tumor proliferation | tumor proliferation in HT29 tumor-bearing mice [2]: significantly inhibit tumor proliferation | level of IL-10 in tumor tissues ([3]; high-dose monotropein (8 mg/kg) and positive drug 5-ASA (100 mg/kg)): no significant differences | level of IL-10 in tumor tissues ([3]; low-dose monotropein (2 mg/kg)): extremely significantly up-regulated | proliferation of SW1990 cells in vitro [4]: significantly inhibit the proliferation | spleen enlargement caused by AOM/DSS modeling (organ coefficient) ([5]; monotropein high (8 mg/kg) and low (2 mg/kg) doses, 5-ASA 100 mg/kg): significantly reduce the spleen enlargement | anal prolapse occurrence at the third stage of modeling ([5]; per group, monotropein 8 mg/kg and 2 mg/kg groups (17 animals each), 5-ASA 100 mg/kg (22 animals), gavage daily, model group 8-12): 2-6 animals
